From patent publication US20260083697A1, “COMPOSITION AND USE OF SAME FOR CONTROLLING INFECTIONS IN AQUATIC ORGANISMS” (priority 2022, published 2026) come the findings set out here.

One data set has as its system Gyrodactylus turnbulli. The format is cell-based. Conditions: for antiparasitic activity of pure commercial ethyl ester: commercial ethyl ester form, Kolliphor and sonication. An excerpt:
FIGS. 2A-2C include graphs showing antiparasitic effect of residue extract and preparations (FFA & FAEE) with and without the addition of the food-grade detergent Kolliphor (K) and sonication(S) prior to analysis. […] Gyrodactylus turnbulli was exposed to the following preparations: (2A) residue extract (RE) and RE with Kolliphor and sonication (RE-K-S); (2B) FFA and FFA with Kolliphor and sonication (FFA-K-S); and (2C) FAEE with Kolliphor and sonication (FAEE-K-S). The numbers represent the tested concentrations of the solution applied at μL mL^−1. n=3 wells with at least five observed parasites per well.
FIG. 5 includes a vertical bar graph showing dose-dependent antiparasitic effect of fatty acids in their ethyl ester form as tested in situ. Selected were the four FAs that appeared at the highest level in the residue and its extracts and preparations, as pure commercial compounds: myristic acid (14:0), palmitic acid (16:0), palmitoleic acid (16:1n7), and EPA (20:5n3). The analysis was carried out with the addition of Kolliphor (K) and sonication (S). Time to reach 50% parasite mortality was recorded.
FIG. 11A-11B include graphs showing in-situ antiparasitic effect against Gyrodactylus by commercial FAEEs. Gyrodactylus was exposed by commercial FAEEs at 18.75, 37.5, and 75 μM along with addition of 1% Kolliphor (K) and sonication(S).
An in-situ assay was carried out, as described previously (Kim et al., 2021). Briefly, infected guppies (as confirmed by observation under a stereomicroscope (Richards and Chubb 1996)) were anesthetized with 250 ppm of Sedanol (Stockton-Aquamor Ltd., Israel) (Zorin et al., 2019) followed by euthanasia (brain pithing). Tail fin clips with more than four parasites were excised and transferred, using watchmaker's forceps, to a single well of a 24-well plate containing standardized water (STW: dechlorinated tap water with Na2S2O3 at 0.37 mg L^−1 followed by autoclaving). Ethanol and STW, as well as the relevant solvents and preparation protocol used for extraction, were used as negative controls in each trial. Parasites were observed under an inverted microscope (Axiovert 40 CFL, Carl Zeiss AG) for 4 h, at intervals ranging from 5 to 30 min, during which detached and dead parasites were recorded. A total of 12-15 parasites (with three replicates) were analyzed for each treatment concentration.
Residue extract and preparations were tested at the following concentrations: residue extract at 2.5, 5 and 10 μL mL^−1, and FFA and FAEE at 2.5 and 5 μL mL^−1 (in ethanol). Selected pure active compounds were analyzed, based on the analysis of the FAEE composition. These included the ethyl esters of the following fatty acids: myristic acid (14:0), palmitic acid (16:0), palmitoleic acid (16:1n7), and EPA ([…]) (obtained from Nu-Check, USA). Tested concentrations were calculated based on the amount of active compound in the FA profile of ethyl esters according to the GC-results.

A further data set concerns fish. Put plainly: Toxicity of commercial fatty acid ethyl esters to fish over 48 h. It counts as in vivo. Particulars: at least 48 h.

For `CCCCCCCCCCCCCC(=O)OCC` [14:0, ethyl myristate], the “antiparasitic activity of pure commercial ethyl ester” value (shortened to “antiparasitic activity”) in the data set on Gyrodactylus turnbulli is on record as “activity”. Besides, in the data set on fish (7.3 μM to 14.5 μM), the toxicity to fish result is “non-toxic”. On to `CC/C=C\C/C=C\C/C=C\CCCCCCCC(=O)OCC` [18:3n3, ethyl alpha linolenate], for which the toxicity to fish result in the data set with fish (7.3 μM to 14.5 μM) is reported as “non-toxic”. Regarding `CC/C=C\C/C=C\C/C=C\C/C=C\C/C=C\CCCC(=O)OCC` [20:5n3], in the data set with Gyrodactylus turnbulli (3 and 6 μL mL^−1), the “effect on the parasite at low concentrations” value is “inducing parasite mortality”. In addition, the “dose dependence of antiparasitic effect” value with Gyrodactylus turnbulli (3 to 24 μL mL^−1) is “dose-dependent effect”. Further, the “relative activity (time to 50% parasite mortality)” value in the data set on Gyrodactylus turnbulli (12 and 24 μL mL^−1, compared with the other three FAEEs) was “most active”. For the same molecule, the “antiparasitic activity” value in the data set on Gyrodactylus turnbulli is recorded as “activity”. For the same molecule, the toxicity to fish entry with fish (7.3 μM to 14.5 μM) is “non-toxic”. Consider `CCCCC/C=C\C/C=C\C/C=C\CCCCC(=O)OCC` [18:3n6, ethyl gamma linolenate], for which the toxicity to fish result in the data set with fish (7.3 μM to 14.5 μM) is recorded as “non-toxic”. Turning to `CCCCCCCCCC(=O)OCC` [10:0, ethyl decanoate], the toxicity to fish result in the data set on fish (18.75 μM to 37.5 μM) is reported as “non-toxic”.

As to `CCCCCCCCC(=O)OCC` [9:0, ethyl nonanoate], the toxicity to fish result with fish (18.75 μM to 37.5 μM) was “non-toxic”. `CCCCCCCCCCCCCCCC(=O)OCC` [16:0, ethyl palmitate]: the “antiparasitic activity” value in the data set with Gyrodactylus turnbulli is reported as “activity”. The toxicity to fish entry with fish (7.3 μM to 14.5 μM) is reported as “non-toxic”. For the molecule `CCCCC/C=C\C/C=C\CCCCCCCC(=O)OCC` [18:2n6, ethyl linoleate], in the data set with fish (7.3 μM to 14.5 μM), the toxicity to fish result is on record as “non-toxic”.

With `CCCCCCCCCCCC(=O)OCC` [12:0, ethyl laurate], in the data set with fish (9.375 μM to 37.5 M), the toxicity to fish result was “non-toxic”.
